melting point [°C]	SMILES
190 to 191	COC(=O)C1=C(C)NC(c2ccccc2)=C(C(=O)O)C1c1ccc([N+](=O)[O-])cc1 (stereo unspecified)
124 to 125	CCOC(=O)c1cc2cccc(N(C)S(=O)(=O)c3ccccc3OC)c2n1COC
229 to 232	O=c1c(-c2cccc(F)c2)c(CNc2ncnc3[nH]cnc23)oc2ccc(F)cc12
158 to 160	CC(=O)Oc1ccccc1C(=O)NC(Oc1ccc2ccccc2c1)C(Cl)(Cl)Cl (stereo unspecified)
166	CCOC(=O)c1cc(NCc2ccccc2)c(Oc2ccc(OCc3ccccc3)cc2)c(S(N)(=O)=O)c1
128 to 132	CC1(C)OC(c2ccc(S(N)(=O)=O)c(Br)c2)=C(c2ccccc2)C1=O
272 to 274	COc1ccc2nc3c(C(=O)O)cccn3c(=O)c2c1
> 250	CS(=O)(=O)Nc1cc2occ(NC(N)=O)c(=O)c2cc1Oc1ccccc1
214 to 215	Cn1cc(C2=C(c3cn4c5c(cccc35)CCC4CCO)C(=O)NC2=O)c2ccccc21 (stereo unspecified)
85.5 to 86.5	O=C1OCN(C(=O)OCc2ccccc2)[C@H]1Cc1ccccc1
81 to 82	CCOC(=O)c1c(COC(C)=O)cccc1S(=O)(=O)NC(C)(C)C
250 to 252	Cc1ccc2[nH]c3c(cc(-c4cccc(Nc5ccccn5)c4)c(=O)n3C)c2c1
156 to 158	CCN(C(=O)C(NS(=O)(=O)c1c(C)cc(C)cc1C)C(C)C)c1ccccc1 (stereo unspecified)
181 to 183	COC(=O)CNC(=O)[C@H](CSC(=O)c1ccccc1)NC(=O)CNC(=S)CC(=O)c1ccccc1
145 to 147	C#CCOc1nc(N)nc(-c2ccccc2)c1-c1ccc(=O)n(C(C)C)n1
133 to 135	Cc1cc(-c2ccc(S(C)(=O)=O)cc2)n(-c2ccc(-c3ccco3)cc2)c1

melting point [°C]	SMILES
123 to 125	CCCC(=O)c1cnc2c(OC)cccc2c1Nc1ccc(OC(=O)C(C)C)cc1C
183 to 185	O=[N+]([O-])c1cc(C(F)(F)F)cc2c1nc(C(F)(F)F)n2S(=O)(=O)c1ccccc1
162	COc1ccccc1CNc1ccc2c(CNC(=O)c3ccc(F)cc3)cccc2n1
98 to 100	CCOC(=O)C[C@@H]1C(=O)N(S(=O)(=O)c2ccc(OC)cc2)C=C[C@@H]1c1ccco1
233 to 234	CC(C)(C)[C@@H](NC(=O)c1cc(Cl)cc(Cl)c1)NC1C(=O)C(=O)C1Nc1cccnc1Cl (stereo partly specified)
88 to 89	COC(=O)Cc1csc2cc(-c3ccccc3)cn12
121 to 122	CCOC(=O)[C@@H](O)[C@@H]1OC(=O)c2ccc(OC)cc21
69 to 70	O=C(O)C(=O)c1ccc(OCCCCCOc2ccccc2)cc1
188 to 190	CC(=O)OC1=C(c2nnc(C)o2)N(C)S(=O)(=O)c2ccccc21
203 to 205	Cc1ccc2nc(-c3cccnc3N)n(-c3ccc(CNC(=O)c4ccccc4)cc3)c2n1
> 300	O=c1c2cc(-c3nnn[nH]3)ccc2oc2ncccc12
130 to 132	O=C(CO)c1ccc(-c2ccccc2)cc1
123 to 125	Cc1ccc(CON2C(C(F)(F)F)C(C(=O)Nc3ccccc3)=CN2C)c(C)c1 (stereo unspecified)
191 to 193	CS(=O)(=O)c1ccc(-c2cnn(CC(F)(F)F)c(=O)c2Oc2cccnc2)cc1
127 to 132	CCc1ccc(C2C(=O)Oc3ccccc32)cc1 (stereo unspecified)
148 to 151	Cn1cc(C(=O)c2ccc3ccccc3c2)cc1C(=O)CCl

Continued, molecule first:

SMILES	melting point [°C]
Cc1cc(Cl)ccc1N=CN(C)SN(Cc1ccccc1)Cc1ccccc1	97 to 99
CN(C)CCc1c[nH]c2ccc(CCC(=O)O)cc12	195 to 200
CC(C)(C)c1cc(C(=O)Nc2ccc(N)cc2)cc(C(C)(C)C)c1O	220 to 221
CC(CCCC(=O)O)NC(=O)C(C)S (stereo unspecified)	78 to 79
CCC1(CC(=O)O)OCCc2c1[nH]c1c(C(C)C)cccc21 (stereo unspecified)	158 to 159
C=CCN(CC=C)c1nc(NC(=O)OCC(C)C)n2oc(=O)nc2n1	161 to 163
CC(C)=CCN(C(=O)OC(C)(C)C)c1ccc(OC2CCN(C(=O)OC(C)(C)C)CC2)cc1	145 to 148
CC1(C)CCC2CCCCC2C1NC=NC#N (stereo unspecified)	228
CCCCCCCCCc1ccc(S(N)(=O)=O)cc1	94.5 to 95.2
CCCC(=O)OC1CC(n2cc(CC)c(=O)[nH]c2=O)OC1CNC(=O)Cc1c(Cl)cccc1Cl (stereo unspecified)	130 to 132
CCOc1cc2c(cc1OC)C(=O)CC(C)(C)O2	120 to 122
O=C(O)C(Cc1c[nH]cn1)N1C(=O)c2ccccc2C1=O (stereo unspecified)	280 to 285
CCNCC1(C)CN(c2c(F)cc3c(=O)c(C(=O)O)cn4c3c2OC[C@H]4C)C1	242 to 245
COc1ccc(C(O)CN2CC=C(C3=NNC(=O)CS3)CC2)cc1 (stereo unspecified)	197 to 198
CC(C)(C)NC(=O)c1ncccc1CCc1ccc(F)cc1	59 to 61
COC(=O)c1ccc(C(O)c2ccc(C(=O)OC)cc2)cc1	116
O=C(O)c1ccc(N2CCOCC2)cc1C(=O)O	178 to 180
COC(=O)CCCC(=O)c1ccc(O)c(O)c1	104 to 106
CN1C(=O)C2CCCCC2N=C1c1ccccc1 (stereo unspecified)	79 to 82
CCN1CCN(C(=O)c2cc(N)cc(C(F)(F)F)c2)CC1	104
Cc1c(C(F)(F)F)nn(C(C)C)c1O	150 to 153
CCOP(=O)(Cc1nnc2c(=O)[nH]c3ccc(C(F)(F)F)cc3n12)OCC	204 to 208
O=C1CCC(N2C(=O)c3cccc(OCc4ccc(CN5CCOCC5)cc4)c3C2=O)C(=O)N1 (stereo unspecified)	205 to 207

SMILES	melting point [°C]
CN(CC(O)CN(C)S(=O)(=O)C(F)(F)C(F)(F)C(F)(F)C(F)(F)F)S(=O)(=O)C(F)(F)F (stereo unspecified)	79 to 85
CN(C)S(=O)c1nc2ccccc2s1 (stereo unspecified)	121 to 122
CON1C(=O)CC2(CCN(C(=O)OC(C)(C)C)CC2)C1=O	117
NCc1cc(Cl)c(N=C2NCCN2)c(Cl)c1	205 to 206
COc1ccc2c(c1)-c1c([nH]c3c1-c1cc(OC)ccc1CC3)CC2	206
N#Cc1ccccc1-c1cc(-c2cnc3nc(C(F)(F)F)cnn23)ccc1F	168 to 174
O[C@H](CCc1cccnc1)COc1ccc(C#Cc2ccccc2)cc1	67 to 68
Nc1ccc(S(=O)C(F)(F)C(F)F)cc1F (stereo unspecified)	67 to 69
COc1ccc2nc(-c3ccc([N+](=O)[O-])cc3)sc2c1	216 to 217
O=C(NCCNCC1COc2ccccc2O1)C12CC3CC(CC(C3)C1)C2 (stereo unspecified)	147 to 149
Oc1ccc(-c2ncc3ncc(-c4ccc(C(F)(F)F)cc4)cc3n2)cc1	203 to 204
O=C(O)CCc1ccc(C=CC(=O)c2ccccc2)cc1	159 to 160
CC1CC(=O)c2ccc(F)cc2O1 (stereo unspecified)	42 to 47
Cn1nc(-c2ccccc2)nc1-c1ccccc1CBr	83 to 85
CC(CCCI)C(=O)Nc1nnc(C(C)(C)C)s1 (stereo unspecified)	102
CCOC(=O)CCCn1c(C(=O)NCc2nnc(C)n2-c2sc(CC)cc2C(=O)c2ccccc2Cl)cc2cc(F)ccc21	127 to 128
COc1ccc(Cl)c2c1NC(=O)C2=[N+]=[N-]	206 to 207
Clc1ccc(CN2CC=C(/C=C/c3ccccc3)CC2)cc1Cl	123 to 125
COc1ccc(CN2CCN(CCCN3CCN(Cc4ccc(OC)cc4)CC3)CC2)cc1	86 to 87
COc1ccc(C=CC(=O)c2c(OC)cc(OC)cc2OC2OC(COC(C)=O)C(OC(C)=O)C(OC(C)=O)C2NC(C)=O)cc1 (stereo unspecified)	108 to 110
NCCCNc1cccc2[nH]ncc12	154 to 163
COC(=O)C1=C(C)NC(C)=C(C(=O)OC)C1c1cc([N+](=O)[O-])ccc1OCCCCNCC(O)COc1ccc(OC)cc1 (stereo unspecified)	154 to 155
CCCCC1(C2CCCC2)Cc2cc(OC)c(Cl)c(Cl)c2C1=O (stereo unspecified)	122 to 123

SMILES	melting point [°C]
Clc1nsnc1N1CCOCC1	43 to 45
C[C@]1(COc2ccc(N3CCN(c4ccc(OC(F)(F)F)cc4)CC3)cc2)Cn2cc([N+](=O)[O-])nc2O1	262 to 265
CC(C)(C)c1ccnc(Oc2ccc(CCNc3ncnc4nccnc34)cc2)c1	156 to 157
CNC(=C[N+](=O)[O-])NCCSCc1cc(CN2CCCC2)cs1	109 to 111
c1ccc(-c2ncc(N3CCCC3CCCCOC3CCCCO3)nc2-c2ccccc2)cc1 (stereo unspecified)	94 to 96
OC1CSC(Oc2cccc(-c3cc(Cl)ccn3)c2)C(O)C1O (stereo unspecified)	97 to 105
CCCCN1C(=O)C2C3CCC(O3)C2C1=O (stereo unspecified)	82 to 83
COCOc1ccc(-c2ncc3ccc(-c4csc(CN5CCOCC5)c4)nc3n2)cc1	> 268
O=C(CSc1ccncc1)Nc1cccc(-c2ccnc3c(C(=O)c4cccs4)cnn23)c1	138 to 144
COc1ccc(-c2cnc3cc4cnn(CCO)c4cc3n2)cc1F	192 to 195
CCOC(=O)c1nc2c(Cl)nc3cc(C(F)(F)F)ccc3n2c1C	182 to 183
COCc1nc2c(OC)ccc(C(=O)Cc3ccncc3)c2[nH]1	218 to 220
C/C(=C\c1cccc2c1NCCNC2=O)CCCC(=O)O	257 to 259
C#CCN(c1ccc(C(=O)NC(CCCCCC(=O)O)C(=O)O)cc1)C1CCc2cc3nc(C)[nH]c(=O)c3cc21 (stereo unspecified)	186
O=C1CCN(c2nc(=O)c3cccnc3s2)CC1	222 to 225
CC(C)NP(N)(=O)NC(=O)c1ccc(F)cc1 (stereo unspecified)	197 to 199
CCCn1nnn(-c2cc(OCC(=O)O)c(Cl)cc2Cl)c1=O	134 to 136
CC(C)(C)c1cc(C=O)c(O)c(Br)c1Cl	92 to 94
Nc1c(C#Cc2ccccc2)cnnc1C1CN2CCNC1CC2 (stereo unspecified)	182 to 183
COc1cc(C=C2C(=O)CCc3c2ccc2c3OCO2)c([N+](=O)[O-])cc1OC	66 to 68
CCOC(=O)c1c2ccc(CC(=O)NOCCN3CCCCC3)ccc-2c(C(=O)OCC)c1N	163 to 165
CCCc1c(OCCCOc2ccc3c(c2CCC)OC(CCC(=O)O)CC3=O)ccc(C(C)=O)c1O (stereo unspecified)	149 to 150
CS(=O)CCC1=NS(=O)(=O)NC(N)=N1 (stereo unspecified)	180 to 182

— a melting point compilation (Tetko et al.; mined from patent text by program, amines drawn as free bases though some values may be those of a salt)
